# Assay results as given in US20190367737A1, “CELL-PENETRATING FLUORESCENT DYES WITH SECONDARY ALCOHOL FUNCTIONALITIES” (Max-Planck-Gesellschaft zur foerderung der Wissenschaften …, priority 2016, published 2019).
# “And” between values parts separate entries of the source, which are not always exact repeats. Identical values can stand only once. Like-named read-outs stand apart in the source and are kept apart here.
# Legend:
# [1] = cited from earlier work
# [2] = Formation and stability of the NHS ester; format: physicochemical
# Protocol: • Three stock solutions (A, B and C) were prepared. Solution A: 22 mg HATU (1-[bis(dimethylamino)methylene]-1H-1,2,3-triazolo[4,5-b]pyridinium 3-oxid hexafluorophosphate) in dry DMF (0.10 mL); solution B: Et3N (10 mg) in dry DMF (0.10 mL); solution C: N-hydroxysuccinimide (19 mg) in dry DMF (0.10 mL). To a solution of dye 5 (1.7 mg, 2.6 μmol) in dry DMF (0.10 mL), solutions A, B and C were added successively (14 μL of each solutions) under argon, and the mixture was stirred for 30 min at room temperature. HPLC analysis indicated the conversion degree of 94-95%. […] After removing DMF in vacuo, amide 5-Halo was isolated by preparative HPLC (˜1 mg, 46%), dissolved in DMSO (400 μL), and this stock-solution was used (after dilution with aqueous PBS to 1-5 μM) in labeling experiments with living cells (see section with imaging results). ESI-MS (C41H44C1F6N308, 855.27), positive mode: m/z (rel. int., %)=856 (100) [M+H]^+. HR-MS, ESI (positive mode): m/z=878.2591 (found [M+Na]^+), 878.2613 (calc.).
# [3] = Absorption, emission and fluorescence quantum yield of the dyes; format: physicochemical; conditions: for fluorescence quantum yield relative to Oxazine 1: PBS 7.4, Oxazine 1 Φfl=0.14 in ethanol; for fluorescence quantum yield: in PBS / aqueous buffers
# Protocol: Absorption spectra were recorded with a Varian Cary 4000 UV-Vis double-beam spectrophotometer (Agilent Technologies, USA). For the determination of the absorption spectra, quartz cells with a 1 cm path length were used. Emission spectra and fluorescence quantum yield were obtained on a Quantaurus-QY Absolute PL quantum yield spectrometer C11347 (Hamamatsu Photonics, Japan) or on a Varian Cary Eclipse fluorescence spectrometer (Agilent Technologies, USA).
# [4] = D0.5 in 1,4-dioxane/water (closing into colorless spirolactone form); format: physicochemical
# [5] = Solubility in water and organic solvents; format: physicochemical; conditions: water, aqueous solutions, alcohols, DMSO, DMF, organic solvents as stated
# [6] = system: vimentin-HaloTag fusion protein in U2OS cells; test: Live-cell labeling, confocal and STED imaging, U2OS cells; format: cell-based; conditions: 1 μM, 20 minutes at 37° C.
# Protocol: (§1) Either HeLa or U2OS cells were used. Cells were grown on #1.5 coverslips and cultured at 37° C. with 5% CO2 in DMEM (Dulbecco's modified Eagle's medium) supplemented with 10% FBS (fetal bovine serum), 1% sodium pyruvate and 1% penicillin/streptomycin. The U2OS cell line is a stable cell line which has a stable expression of the vimentin-HaloTag fusion protein (M. Ratz, I. Testa, S. W. Hell, S. Jakobs, Sci. Rep. 2015, 5, 9592). For the expression of vimentin-HaloTag fusion protein in HeLa cells, cells were transfected with 3 μg DNA/well using TurboFect™ Transfection Reagent (Fermentas/Thermo Scientific™, Life Technologies brand) in a 6 well plate. […]
# (§2) Fluorescence detection was done in two spectral detection channels, 605-625 nm and 650-720 nm. […]
# 14a-Halo was excited with a pulsed 561 nm laser and fluorescence was detected in both detection windows: 605-625 nm and 650-720 nm. […] For the STED image the fluorescence counts of 3 scans per line were accumulated with a pixel dwell time of 15 μs. […]
# 6-ROX-Halo was excited with a pulsed 561 nm laser and fluorescence was detected in two detection windows: 605-625 nm and 650-720 nm. […] For the STED image the fluorescence counts of 3 scans per line were accumulated with a pixel dwell time of 15 μs. […]
# 19-Halo was excited with a pulsed 640 nm laser and fluorescence was detected from 650-720 nm. […]
# [7] = system: tubulin filaments in HeLa cells; test: Live-cell tubulin labeling, confocal and STED imaging, HeLa cells; format: cell-based; conditions: 1-5 μM, 20 minutes at 37° C.
# Protocol: as §1, §2
# 19-Tubulin was excited with a pulsed 640 nm laser and fluorescence was detected from 650-720 nm. […] For the STED image the fluorescence counts of 4 scans per line were accumulated with a pixel dwell time of 7 μs. […]
# 33-Tubulin was excited with a pulsed 640 nm laser and fluorescence was detected from 650-720 nm. […] The STED image was recorded with a pixel dwell time of 15 μs. […]
# [8] = aqueous PBS buffer, parent Q-rhodamine
# [9] = commercial dyes, solvent not stated
# [10] = aqueous solutions, dye 5 isomer 3
compound,measurement,setting,value
5(6)-carboxy-Q-rhodamine,absorption maximum,[1]; [8],540 nm
same,emission maximum,[1]; [8],561 nm
same,extinction coefficient ε,[1]; [8],70 000 M^−1 cm^−1
same,fluorescence quantum yield,[1]; [8],0.79
same,stability of N-hydroxysuccinimidyl (NHS) ester,[2],does not form a stable N-hydroxysuccinimidyl ester
CN(C)c1ccc2[c](c1)[Ge]([CH3])([CH3])[c]1cc(N(C)C)ccc1C21OC(=O)c2ccc(C(=O)O)cc21 [Compound 19],fluorescence quantum yield relative to Oxazine 1,[3],0.43
same,absorption maximum λmax,[3]; PBS buffer pH 7.4,634 nm
same,emission maximum λem,[3]; PBS buffer pH 7.4,655 nm
same,extinction coefficient ε,[3]; PBS buffer pH 7.4,97000 M⁻¹ cm⁻¹
same,fluorescence quantum yield,[3],0.43
same,"D0.5 in 1,4-dioxane/water",[4],65.2
"CN(C)c1ccc2c(c1)[Si](C)(C)c1cc(N(C)C)ccc1C21OC(=O)c2ccccc21 [SiR, reference compound]",absorption maximum λmax,[3]; PBS buffer pH 7.4,645 nm
same,emission maximum λem,[3]; PBS buffer pH 7.4,661 nm
same,extinction coefficient ε,[3]; PBS buffer pH 7.4,93000 M⁻¹ cm⁻¹
same,fluorescence quantum yield,[3],0.41
same,"D0.5 in 1,4-dioxane/water",[4],64.5
O=C(O)c1ccccc1C1=c2cc3c4c(c2Oc2c1cc1c5c2CCCN5CCC1)CCC[N+]=4CCC3.[Cl-] [Rhodamine 101],fluorescence quantum yield,[1]; in both organic and aqueous solutions,more than 0.90
"COc1cc2c(c(Cl)c1O)Oc1c(cc(OC)c(O)c1Cl)C21OC(=O)c2ccc(C(=O)O)cc21 [Compound 6-JOE, 6-JOE]",absorption maximum,[1]; [9],520 nm
same,emission maximum,[1]; [9],548 nm
same,extinction coefficient ε,[1]; [9],75 000 M^−1 cm^−1
"C[Si]1(C)c2cc(N3CCC3)ccc2C2(OC(=O)c3ccccc32)c2ccc(N3CCC3)cc21 [JF646, reference compound]",fluorescence quantum yield,[3],0.54
"O=C(O)c1ccc(C(=O)[O-])c(C2=c3cc4c(cc3Oc3cc5c(cc32)CC(O)CN5CC(F)(F)F)=[N+](CC(F)(F)F)CC(O)C4)c1 (stereo not drawn) [Compound 5, N,N′-Bis-(2,2,2-trifluoroethyl)-6′-carboxy-Q-rhodamine-β,β′-diol]",absorption maximum λmax,[3]; [10],532 nm
same,emission maximum λmax,[3]; [10],553 nm
same,extinction coefficient ε,[3]; [10],56000 M⁻¹ cm⁻¹
same,"fluorescence quantum yield Φfl, absolute value","[3]; aqueous solutions, excitation at 488 nm, dye 5 isomer 3",0.89
same,solubility,[5],water-soluble
same,solubility,[5]; listed as 5-OH,much better soluble
same,stability of N-hydroxysuccinimidyl (NHS) ester,[2],forms a stable NHS ester
[CH3][Ge]1([CH3])[c]2cc(N3CC(O)C3)ccc2C2(OC(=O)c3ccc(C(=O)NCCOCCOCCCCCCCl)cc32)c2ccc(N3CC(O)C3)c[c]21 [Compound 33-Halo],absorption maximum λmax,[3]; PBS buffer pH 7.4,639 nm
same,emission maximum λem,[3]; PBS buffer pH 7.4,660 nm
"N-Hydroxysuccinimidyl eater of N,N′-bis-(2,2,2-trifluoro-ethyl)-6′-carboxy-Q-rhodamine-β,β′-diol [Compound 5-NHS]",stability of N-hydroxysuccinimidyl (NHS) ester,[2],stable
CN(C)c1ccc2[c](c1)[Ge]([CH3])([CH3])[c]1cc(N(C)C)ccc1C21OC(=O)c2ccc(C(=O)NCCOCCOCCCCCCCl)cc21 [Compound 19-Halo],imaging performance in living cells (confocal and STED),[6],high contrast images
[CH3][Ge]1([CH3])[c]2cc(N3CC(O)C3)ccc2C2(OC(=O)c3ccc(C(=O)O)cc32)c2ccc(N3CC(O)C3)c[c]21 [Compound 33],absorption maximum λmax,[3]; PBS buffer pH 7.4,631 nm
same,emission maximum λem,[3]; PBS buffer pH 7.4,651 nm
same,extinction coefficient ε,[3]; PBS buffer pH 7.4,61000 M⁻¹ cm⁻¹
same,"fluorescence quantum yield Φfl, absolute value",[3]; PBS buffer pH 7.4,0.60
same,fluorescence quantum yield,[3],0.60
same,imaging performance in living cells (confocal and STED),[7],higher brightness
C[Si]1(C)c2cc(N3CC(O)C3)ccc2C2(OC(=O)c3ccc(C(=O)O)cc32)c2ccc(N3CC(O)C3)cc21 [Compound 42],fluorescence quantum yield relative to Oxazine 1,[3],0.42
same,absorption maximum λmax,[3]; PBS buffer pH 7.4,641 nm
same,emission maximum λem,[3]; PBS buffer pH 7.4,662 nm
same,extinction coefficient ε,[3]; PBS buffer pH 7.4,51500 M⁻¹ cm⁻¹ and 51000 M⁻¹ cm⁻¹
same,fluorescence quantum yield,[3],0.42
same,"D0.5 in 1,4-dioxane/water",[4],72.4
